Assay results: patent US20150105252A1, “SUBSTITUTED PYRAZOLES AS HERBICIDES” (E I DU PONT DE NEMOURS AND COMPANY, priority 2013, published 2015)

Assays:
blackgrass [1] = assay: Test C postemergence; type: in vivo, Alopecurus myosuroides; details: for Plant response rating (scale of 0 to 100 where 0 is no effect and 100 is complete control), Blackgrass: Postemergence, 31 g ai/ha, visually evaluated after 13 to 15 days; for Blackgrass plant response rating / Plant response rating, Blackgrass: postemergence; for Blackgrass plant response rating: 62 g ai/ha, scale 0 to 100
How it was run: (§1)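 Pre- and postemergence greenhouse screen; vehicle was a non-phytotoxic solvent mix with surfactant. Preemergence: treatment applied right after sowing into loam and sand. Postemergence: treated at 1–4 leaves. Visual rating at 13–15 days, 100 = complete control.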

ryegrass, Italian = assay: Test C preemergence; type: in vivo, Lolium multiflorum; details: for Ryegrass, Italian plant response rating / Plant response rating, Ryegrass, Italian: preemergence; for Plant response rating, Ryegrass, Italian: scale 0 to 100, 0 = no effect, 100 = complete control
How it was run: as §1

ragweed = assay: Test C postemergence; type: in vivo, Ambrosia elation; details: postemergence
How it was run: as §1

wheat = assay: Test A preemergence; type: in vivo, Triticum aestivum; details: preemergence; for Wheat plant response rating (0 to 100 scale): visual injury approx. 10 days after treatment
How it was run: (§2)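 Both timings tested concurrently in loam/sand soil: preemergence by directed soil spray, postemergence on plants of 2–10 cm at the one- to two-leaf stage. Greenhouse holding period was approximately 10 days before visual injury assessment (0–100, 0 = no effect).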

barnyardgrass = assay: Test C preemergence; type: in vivo, Echinochloa crus-galli; details: for Barnyardgrass plant response rating / Plant response rating, Barnyardgrass: preemergence; for Plant response rating, Barnyardgrass: scale 0 to 100, 0 = no effect, 100 = complete control
How it was run: as §1

morningglory [2] = assay: Test A preemergence; type: in vivo, Ipomoea spp.; details: preemergence; for Morningglory plant response rating (0 to 100 scale): visual injury approx. 10 days after treatment
How it was run: as §2

pigweed [3] = assay: Test C preemergence; type: in vivo, Amaranthus retroflexus; details: for Pigweed plant response rating / Plant response rating, Pigweed: preemergence; for Plant response rating, Pigweed: scale 0 to 100, 0 = no effect, 100 = complete control
How it was run: as §1

johnsongrass = assay: Test C preemergence; type: in vivo, Sorghum halepense; details: for Johnsongrass plant response rating / Plant response rating, Johnsongrass: preemergence; for Plant response rating, Johnsongrass: scale 0 to 100, 0 = no effect, 100 = complete control
How it was run: as §1

morningglory [4] = assay: Test C postemergence; type: in vivo, Ipomoea coccinea; details: for Plant response rating (scale of 0 to 100 where 0 is no effect and 100 is complete control), Morningglory: Postemergence, 31 g ai/ha, visually evaluated after 13 to 15 days; for Morningglory plant response rating / Plant response rating, Morningglory: postemergence; for Morningglory plant response rating: 62 g ai/ha, scale 0 to 100
How it was run: as §1

corn = assay: Test A preemergence; type: in vivo, Zea mays; details: preemergence; for Corn plant response rating (0 to 100 scale): visual injury approx. 10 days after treatment
How it was run: as §2

pigweed [5] = assay: Test C postemergence; type: in vivo, Amaranthus retroflexus; details: for Pigweed plant response rating / Plant response rating, Pigweed: postemergence; for Pigweed plant response rating: 62 g ai/ha, scale 0 to 100
How it was run: as §1

morningglory [6] = assay: Test C preemergence; type: in vivo, Ipomoea coccinea; details: for Morningglory plant response rating / Plant response rating, Morningglory: preemergence; for Plant response rating, Morningglory: scale 0 to 100, 0 = no effect, 100 = complete control
How it was run: as §1

blackgrass [7] = assay: Test C preemergence; type: in vivo, Alopecurus myosuroides; details: for Blackgrass plant response rating / Plant response rating, Blackgrass: preemergence; for Plant response rating, Blackgrass: scale 0 to 100, 0 = no effect, 100 = complete control
How it was run: as §1

[8] = 250 g ai/ha, scale 0 to 100 (0 no effect, 100 complete control)
[9] = 125 g ai/ha, scale 0 to 100, 0 no effect, 100 complete control
[10] = 31 g ai/ha, visual rating, scale 0 to 100 (0 no effect, 100 complete control), 13 to 15 days
[11] = 62 g ai/ha, scale 0 to 100 (0 no effect, 100 complete control), 13 to 15 days
[12] = 125 g ai/ha, scale 0 to 100, 0 is no effect, 100 is complete control
[13] = 125 g ai/ha, visual injury, 0 to 100 scale, approx. 10 days
[14] = 500 g ai/ha, visual injury after approx. 10 days, 0 to 100 scale (0 no effect, 100 complete control)
[15] = 250 g ai/ha, scale 0 to 100, 0 is no effect, 100 is complete control

Structure (SMILES): CCCNC(=O)c1cc(CC)n(Cc2nc(C(F)(F)F)nn2C)n1 [Compound 109]
- Plant response rating (scale of 0 to 100 where 0 is no effect and 100 is complete control), Blackgrass (blackgrass [1]): 5
- Blackgrass plant response rating (blackgrass [1]): 5
- Plant response rating, Blackgrass (blackgrass [1]; [8]): 15
- Plant response rating, Blackgrass (blackgrass [1]; [9]): 10
- Plant response rating (scale of 0 to 100), Ryegrass, Italian (ryegrass, Italian; Preemergence, 250 g ai/ha): 100
- Ryegrass, Italian plant response rating (ryegrass, Italian; [10]): 10
- Ryegrass, Italian plant response rating (ryegrass, Italian; [11]): 50
- Ryegrass, Italian plant response rating (ryegrass, Italian; [12]): 100
- Plant response rating, Ragweed (ragweed; [8]): 80
- Wheat plant response rating (wheat; [13]): 30
- Wheat plant response rating (wheat; [14]): 90
- Plant response rating (scale of 0 to 100), Barnyardgrass (barnyardgrass; Preemergence, 250 g ai/ha): 100
- Barnyardgrass plant response rating (barnyardgrass; 31 g ai/ha, scale 0 to 100 (0 no effect, 100 complete control), 13 to 15 days): 100
- Barnyardgrass plant response rating (barnyardgrass; [11]): 100
- Barnyardgrass plant response rating (barnyardgrass; [12]): 100
- Morningglory plant response rating (morningglory [2]; [13]): 100
- Morningglory plant response rating (morningglory [2]; [14]): 100
- Plant response rating (scale of 0 to 100), Pigweed (pigweed [3]; Preemergence, 250 g ai/ha): 100
- Pigweed plant response rating (pigweed [3]; [10]): 70
- Pigweed plant response rating (pigweed [3]; [11]): 100
- Pigweed plant response rating (pigweed [3]; [12]): 100
- Plant response rating (scale of 0 to 100), Johnsongrass (johnsongrass; Preemergence, 250 g ai/ha): 100
- Johnsongrass plant response rating (johnsongrass; [10]): 80
- Johnsongrass plant response rating (johnsongrass; [11]): 90
- Johnsongrass plant response rating (johnsongrass; [12]): 100
- Plant response rating (scale of 0 to 100 where 0 is no effect and 100 is complete control), Morningglory (morningglory [4]): 65
- Morningglory plant response rating (morningglory [4]): 70
- Plant response rating, Morningglory (morningglory [4]; [8]): 85
- Plant response rating, Morningglory (morningglory [4]; [9]): 75
- Corn plant response rating (corn; [13]): 60
- Corn plant response rating (corn; [14]): 80
- Plant response rating (scale of 0 to 100 where 0 is no effect and 100 is complete control), Pigweed (pigweed [5]; Postemergence, 31 g ai/ha, visually evaluated after 13 to 15 days): 10
- Pigweed plant response rating (pigweed [5]): 40
- Plant response rating, Pigweed (pigweed [5]; [8]): 65
- Plant response rating, Pigweed (pigweed [5]; [9]): 65
- Plant response rating (scale of 0 to 100), Morningglory (morningglory [6]; Preemergence, 250 g ai/ha): 100
- Morningglory plant response rating (morningglory [6]; [10]): 95
- Morningglory plant response rating (morningglory [6]; [11]): 100
- Morningglory plant response rating (morningglory [6]; [12]): 100
- Plant response rating (scale of 0 to 100), Blackgrass (blackgrass [7]; Preemergence, 250 g ai/ha): 100
- Blackgrass plant response rating (blackgrass [7]; [10]): 100
- Blackgrass plant response rating (blackgrass [7]; [11]): 100
- Blackgrass plant response rating (blackgrass [7]; [12]): 100

Structure (SMILES): CCCc1cc(C(=O)NC(C)C)nn1Cc1ccnc(C(F)(F)F)c1 [Compound 186]
- Plant response rating (scale of 0 to 100 where 0 is no effect and 100 is complete control), Blackgrass (blackgrass [1]): 5
- Blackgrass plant response rating (blackgrass [1]): 10
- Plant response rating, Blackgrass (blackgrass [1]; [8]): 60
- Plant response rating, Blackgrass (blackgrass [1]; [9]): 10
- Ryegrass, Italian plant response rating (ryegrass, Italian; [10]): 5
- Ryegrass, Italian plant response rating (ryegrass, Italian; [11]): 80
- Plant response rating, Ryegrass, Italian (ryegrass, Italian; 125 g ai/ha, 13 to 15 days): 90
- Ryegrass, Italian plant response rating (ryegrass, Italian; [15]): 90
- Plant response rating, Ragweed (ragweed; [8]): 70
- Plant response rating, Ragweed (ragweed; [9]): 55
- Wheat plant response rating (0 to 100 scale) (wheat; 125 g ai/ha): 90
- Wheat plant response rating (wheat; [14]): 100
- Barnyardgrass plant response rating (barnyardgrass; [10]): 100
- Barnyardgrass plant response rating (barnyardgrass; [11]): 100
- Plant response rating, Barnyardgrass (barnyardgrass; 125 g ai/ha, 13 to 15 days): 100
- Barnyardgrass plant response rating (barnyardgrass; [15]): 100
- Morningglory plant response rating (0 to 100 scale) (morningglory [2]; 125 g ai/ha): 100
- Morningglory plant response rating (morningglory [2]; [14]): 100
- Pigweed plant response rating (pigweed [3]; [10]): 100
- Pigweed plant response rating (pigweed [3]; [11]): 100
- Plant response rating, Pigweed (pigweed [3]; 125 g ai/ha, 13 to 15 days): 100
- Pigweed plant response rating (pigweed [3]; [15]): 100
- Johnsongrass plant response rating (johnsongrass; [10]): 75
- Johnsongrass plant response rating (johnsongrass; [11]): 98
- Plant response rating, Johnsongrass (johnsongrass; 125 g ai/ha, 13 to 15 days): 100
- Johnsongrass plant response rating (johnsongrass; [15]): 100
- Plant response rating (scale of 0 to 100 where 0 is no effect and 100 is complete control), Morningglory (morningglory [4]): 85
- Morningglory plant response rating (morningglory [4]): 85
- Plant response rating, Morningglory (morningglory [4]; [8]): 75
- Plant response rating, Morningglory (morningglory [4]; [9]): 75
- Corn plant response rating (0 to 100 scale) (corn; 125 g ai/ha): 80
- Corn plant response rating (corn; [14]): 100
- Pigweed plant response rating (pigweed [5]): 70
- Plant response rating, Pigweed (pigweed [5]; [8]): 85
- Plant response rating, Pigweed (pigweed [5]; [9]): 85
- Morningglory plant response rating (morningglory [6]; [10]): 98
- Morningglory plant response rating (morningglory [6]; [11]): 70
- Plant response rating, Morningglory (morningglory [6]; 125 g ai/ha, 13 to 15 days): 100
- Morningglory plant response rating (morningglory [6]; [15]): 100
- Blackgrass plant response rating (blackgrass [7]; [10]): 85
- Blackgrass plant response rating (blackgrass [7]; [11]): 90
- Plant response rating, Blackgrass (blackgrass [7]; 125 g ai/ha, 13 to 15 days): 90
- Blackgrass plant response rating (blackgrass [7]; [15]): 90

Structure (SMILES): CCCc1cc(C(=O)NC2CC2)nn1Cc1cc(C(F)(F)F)nn1C [Compound 202]
- Plant response rating (scale of 0 to 100 where 0 is no effect and 100 is complete control), Blackgrass (blackgrass [1]): 5
- Blackgrass plant response rating (blackgrass [1]): 10
- Plant response rating, Blackgrass (blackgrass [1]; [8]): 30
- Plant response rating, Blackgrass (blackgrass [1]; [9]): 20
- Ryegrass, Italian plant response rating (ryegrass, Italian; [10]): 5
- Ryegrass, Italian plant response rating (ryegrass, Italian; [11]): 50
- Plant response rating, Ryegrass, Italian (ryegrass, Italian; 125 g ai/ha, 13 to 15 days): 90
- Ryegrass, Italian plant response rating (ryegrass, Italian; [15]): 90
- Plant response rating, Ragweed (ragweed; [8]): 80
- Plant response rating, Ragweed (ragweed; [9]): 65
- Wheat plant response rating (0 to 100 scale) (wheat; 125 g ai/ha): 30
- Wheat plant response rating (wheat; [14]): 100
- Barnyardgrass plant response rating (barnyardgrass; [10]): 95
- Barnyardgrass plant response rating (barnyardgrass; [11]): 100
- Plant response rating, Barnyardgrass (barnyardgrass; 125 g ai/ha, 13 to 15 days): 100
- Barnyardgrass plant response rating (barnyardgrass; [15]): 100
- Morningglory plant response rating (0 to 100 scale) (morningglory [2]; 125 g ai/ha): 100
- Morningglory plant response rating (morningglory [2]; [14]): 100
- Pigweed plant response rating (pigweed [3]; [10]): 100
- Pigweed plant response rating (pigweed [3]; [11]): 100
- Plant response rating, Pigweed (pigweed [3]; 125 g ai/ha, 13 to 15 days): 100
- Pigweed plant response rating (pigweed [3]; [15]): 100
- Johnsongrass plant response rating (johnsongrass; [10]): 50
- Johnsongrass plant response rating (johnsongrass; [11]): 85
- Plant response rating, Johnsongrass (johnsongrass; 125 g ai/ha, 13 to 15 days): 100
- Johnsongrass plant response rating (johnsongrass; [15]): 100
- Plant response rating (scale of 0 to 100 where 0 is no effect and 100 is complete control), Morningglory (morningglory [4]): 35
- Morningglory plant response rating (morningglory [4]): 40
- Plant response rating, Morningglory (morningglory [4]; [8]): 98
- Plant response rating, Morningglory (morningglory [4]; [9]): 90
- Corn plant response rating (0 to 100 scale) (corn; 125 g ai/ha): 10
- Corn plant response rating (corn; [14]): 40
- Pigweed plant response rating (pigweed [5]): 80
- Plant response rating, Pigweed (pigweed [5]; [8]): 95
- Plant response rating, Pigweed (pigweed [5]; [9]): 90
- Morningglory plant response rating (morningglory [6]; [10]): 90
- Morningglory plant response rating (morningglory [6]; [11]): 100
- Plant response rating, Morningglory (morningglory [6]; 125 g ai/ha, 13 to 15 days): 100
- Morningglory plant response rating (morningglory [6]; [15]): 100
- Blackgrass plant response rating (blackgrass [7]; [10]): 10
- Blackgrass plant response rating (blackgrass [7]; [11]): 85
- Plant response rating, Blackgrass (blackgrass [7]; 125 g ai/ha, 13 to 15 days): 90
- Blackgrass plant response rating (blackgrass [7]; [15]): 90
